In PubChem BioAssay AID256 (DTP/NCI, 2004):
“And” between values parts separate entries of the source, which are not always exact repeats. Identical values can stand only once. Toxic doses and inconclusive results are not listed. How the source made its calls: active means survival T/C of 150% or more; inactive means T/C below 125% in these data.

Tested on: CD2F1 mice, L1210 leukemia ip, survival T/C
Experiment: NCI In Vivo Anticancer Drug Screen. Data for tumor model L1210 Leukemia (intraperitoneal) in CD2F1 (CDF1) mice
Conditions: higher = longer survival
In short: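 Ratio T/C, where T is the treated-group value and C the vehicle-dosed control value, from mice implanted with a transplantable tumor.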

[1] = endpoint: mean survival time, dose: 100.0 mg/kg/injection, schedule: Q01DX009 (ip), vehicle: saline with Tween-80
[2] = endpoint: mean survival time, dose: 100.0 mg/kg/injection, schedule: Q04DX003 (ip), vehicle: saline with Tween-80
[3] = endpoint: mean survival time, dose: 200.0 mg/kg/injection, schedule: Q01DX009 (ip), vehicle: saline with Tween-80
[4] = endpoint: mean survival time, dose: 200.0 mg/kg/injection, schedule: Q04DX003 (ip), vehicle: saline with Tween-80
[5] = endpoint: mean survival time, dose: 400.0 mg/kg/injection, schedule: Q04DX003 (ip), vehicle: saline with Tween-80
[6] = endpoint: mean survival time, dose: 400.0 mg/kg/injection, schedule: Q01DX009 (ip), vehicle: saline with Tween-80
[7] = endpoint: mean survival time, dose: 50.0 mg/kg/injection, schedule: Q04DX002 (ip), vehicle: saline with Tween-80
[8] = endpoint: mean survival time, dose: 100.0 mg/kg/injection, schedule: Q01DX001 (ip), vehicle: saline with Tween-80
[9] = endpoint: mean survival time, dose: 100.0 mg/kg/injection, schedule: Q04DX002 (ip), vehicle: saline with Tween-80
[10] = endpoint: mean survival time, dose: 200.0 mg/kg/injection, schedule: Q04DX002 (ip), vehicle: saline with Tween-80

Measured: T/C

COCc1c(C)c(C)c(COC)c(C)c1C
inactive: endpoint: mean survival time, dose: 50.0 mg/kg/injection, schedule: Q01DX009 (ip), vehicle: saline 95 % of control | endpoint: mean survival time, dose: 100.0 mg/kg/injection, schedule: Q01DX009 (ip), vehicle: saline 97 % of control | endpoint: mean survival time, dose: 200.0 mg/kg/injection, schedule: Q01DX009 (ip), vehicle: saline 88 % of control

CC1(c2ccccc2)C(C#N)C(=O)NC(=O)C1C#N (stereo unspecified)
inactive: [1] 94 % of control | [2] 102 % of control | [3] 93 % of control | [4] 91 % of control | [5] 91 % of control

O=C(Nc1ccc(Cl)cc1)OCCN1CCOCC1
inactive: [1] 90 % of control | [2] 93 % of control | [3] 92 % of control | [4] 94 % of control | [6] 91 % of control | [5] 89 % of control

NC1CCCCC1N.NC1CCCCC1N.[Cl-].[Ni] (stereo unspecified)
inactive: [7] 110 % of control

CC(=O)OC1CCC2(C)C(CCC3C2CCC2(C)C3CC3OC(CCC(C)CO)C(C)C32)C1 (stereo unspecified)
inactive: [1] 95 % of control | [3] 91 % of control | [6] 96 % of control

C1CC2CC1C1OC21 (stereo unspecified)
inactive: endpoint: mean survival time, dose: 100.0 mg/kg/injection, schedule: Q04DX003 (ip), vehicle: other 94 % of control | endpoint: mean survival time, dose: 200.0 mg/kg/injection, schedule: Q04DX003 (ip), vehicle: other 96 % of control | endpoint: mean survival time, dose: 400.0 mg/kg/injection, schedule: Q04DX003 (ip), vehicle: other 91 % of control

O=c1[nH]c(=S)[nH]c(-c2ccccc2)c1CCO
inactive: [2] 97 % of control | [4] 101 % of control | [5] 91 % of control

CC12C(=O)C=CCC1=CCC1C2CCC2(O)C(=O)OC3(C)C4CC5(C)C(COC16OC23C5C6=O)C(=O)O4 (stereo unspecified)
inactive: endpoint: median survival time, dose: 25.0 mg/kg/injection, schedule: Q01DX009 (ip), vehicle: Klucel (hydroxypropylcellulose) (HPC) 102 % of control | endpoint: median survival time, dose: 50.0 mg/kg/injection, schedule: Q01DX009 (ip), vehicle: Klucel (hydroxypropylcellulose) (HPC) 96 % of control | endpoint: median survival time, dose: 100.0 mg/kg/injection, schedule: Q01DX009 (ip), vehicle: Klucel (hydroxypropylcellulose) (HPC) 100 % of control | endpoint: median survival time, dose: 200.0 mg/kg/injection, schedule: Q01DX009 (ip), vehicle: Klucel (hydroxypropylcellulose) (HPC) 108 % of control

CC(C)(CO)C(O)C(=O)NC1CCCCC1 (stereo unspecified)
inactive: [8] 98 % of control | [1] 102 % of control | endpoint: mean survival time, dose: 200.0 mg/kg/injection, schedule: Q01DX001 (ip), vehicle: saline with Tween-80 102 % of control | [3] 100 % of control | endpoint: mean survival time, dose: 400.0 mg/kg/injection, schedule: Q01DX001 (ip), vehicle: saline with Tween-80 94 % of control | [6] 97 % of control

CCCOc1cc[n+]([O-])c2ccccc12
inactive: [9] 94 % of control | [10] 94 % of control

CC(=O)Oc1cc2c(OC(C)=O)c(-c3c(C)cc4c(C(C)C)c(OC(C)=O)c(OC(C)=O)cc4c3OC(C)=O)c(C)cc2c(C(C)C)c1OC(C)=O
inactive: endpoint: mean survival time, dose: 25.0 mg/kg/injection, schedule: Q04DX002 (ip), vehicle: saline with Tween-80 100 % of control | [7] 96 % of control | [9] 89 % of control

COc1cc2c(c(OC)c1OC)-c1ccc(SCc3ccccc3)c(=O)cc1[C@@H](NC(C)=O)CC2
inactive: endpoint: mean survival time, dose: 1.56 mg/kg/injection, schedule: Q01DX009 (ip), vehicle: Klucel (hydroxypropylcellulose) (HPC) 103 % of control | endpoint: mean survival time, dose: 3.12 mg/kg/injection, schedule: Q01DX009 (ip), vehicle: Klucel (hydroxypropylcellulose) (HPC) 97 % of control | endpoint: mean survival time, dose: 6.25 mg/kg/injection, schedule: Q01DX009 (ip), vehicle: Klucel (hydroxypropylcellulose) (HPC) 112 % of control | endpoint: mean survival time, dose: 12.5 mg/kg/injection, schedule: Q01DX009 (ip), vehicle: Klucel (hydroxypropylcellulose) (HPC) 121 % of control | endpoint: mean survival time, dose: 25.0 mg/kg/injection, schedule: Q01DX009 (ip), vehicle: Klucel (hydroxypropylcellulose) (HPC) 117 % of control

C1CC2OC2C1 (stereo unspecified)
inactive: endpoint: mean survival time, dose: 100.0 mg/kg/injection, schedule: Q01DX009 (ip), vehicle: acetone 95 % of control | endpoint: mean survival time, dose: 200.0 mg/kg/injection, schedule: Q01DX009 (ip), vehicle: acetone 97 % of control | endpoint: mean survival time, dose: 400.0 mg/kg/injection, schedule: Q01DX009 (ip), vehicle: acetone 95 % of control

COc1ccc(C(C)C(OC(=O)c2ccc([N+](=O)[O-])cc2)c2ccccc2)cc1 (stereo unspecified)
inactive: [1] 94 % of control | [2] 88 % of control | [3] 88 % of control | [4] 97 % of control | [6] 103 % of control | [5] 94 % of control

N#Cc1c(Cl)cc(C2(OC(=O)c3ccc([N+](=O)[O-])cc3)C3C=CC2CC3)cc1Cl (stereo unspecified)
inactive: endpoint: median survival time, dose: 25.0 mg/kg/injection, schedule: Q04DX002 (ip), vehicle: saline with Tween-80 100 % of control | endpoint: median survival time, dose: 50.0 mg/kg/injection, schedule: Q04DX002 (ip), vehicle: saline with Tween-80 87 % of control | endpoint: median survival time, dose: 100.0 mg/kg/injection, schedule: Q04DX002 (ip), vehicle: saline with Tween-80 100 % of control | endpoint: median survival time, dose: 200.0 mg/kg/injection, schedule: Q04DX002 (ip), vehicle: saline with Tween-80 100 % of control

O=C(CC(O)(C(F)(F)F)C(F)(F)F)c1ccc(Cl)c2ccccc12
inactive: endpoint: mean survival time, dose: 100.0 mg/kg/injection, schedule: Q01DX001 (ip), vehicle: other 102 % of control | endpoint: mean survival time, dose: 200.0 mg/kg/injection, schedule: Q01DX001 (ip), vehicle: other 100 % of control | endpoint: mean survival time, dose: 400.0 mg/kg/injection, schedule: Q01DX001 (ip), vehicle: other 96 % of control

COc1cc2c(c(OC)c1OC)-c1ccc(SC)c(=O)cc1C(N=C(NC1OCC(OC(C)=O)C(OC(C)=O)C1OC(C)=O)SN(NC(=O)OCc1ccccc1)C(=O)OCc1ccccc1)CC2 (stereo unspecified)
inactive: [8] 92 % of control

O=c1[nH]c(=O)n(C2OC(CO)C3OP(=O)(C45CC6CC(CC(C6)C4)C5)OC32)cc1Br (stereo unspecified)
inactive: endpoint: mean survival time, dose: 12.5 mg/kg/injection, schedule: Q01DX005 (ip), vehicle: other 93 % of control | endpoint: mean survival time, dose: 25.0 mg/kg/injection, schedule: Q01DX005 (ip), vehicle: other 97 % of control | endpoint: mean survival time, dose: 50.0 mg/kg/injection, schedule: Q01DX005 (ip), vehicle: other 93 % of control | endpoint: mean survival time, dose: 100.0 mg/kg/injection, schedule: Q01DX005 (ip), vehicle: other 93 % of control | endpoint: mean survival time, dose: 200.0 mg/kg/injection, schedule: Q01DX005 (ip), vehicle: other 93 % of control

Cc1ccc([N+](=O)[O-])cc1NC(=O)Nc1c(C)n(C)n(-c2ccccc2)c1=O
inactive: endpoint: mean survival time, dose: 50.0 mg/kg/injection, schedule: Q01DX009 (ip), vehicle: Klucel (hydroxypropylcellulose) (HPC) 93 % of control | endpoint: mean survival time, dose: 100.0 mg/kg/injection, schedule: Q01DX009 (ip), vehicle: Klucel (hydroxypropylcellulose) (HPC) 89 % of control | endpoint: mean survival time, dose: 200.0 mg/kg/injection, schedule: Q01DX009 (ip), vehicle: Klucel (hydroxypropylcellulose) (HPC) 93 % of control

Nc1c[nH]c(=O)[nH]c1=O
inactive: [9] 101 % of control | [10] 109 % of control | endpoint: mean survival time, dose: 400.0 mg/kg/injection, schedule: Q04DX002 (ip), vehicle: saline with Tween-80 109 % of control

COc1ccc2c(c1OC)CC1N(S(=O)(=O)c3ccc(C)cc3)CCC13c1ccccc1N(C(C)=O)C23 (stereo unspecified)
inactive: endpoint: mean survival time, dose: 75.0 mg/kg/injection, schedule: Q01DX001 (ip), vehicle: other 95 % of control | endpoint: mean survival time, dose: 150.0 mg/kg/injection, schedule: Q01DX001 (ip), vehicle: other 89 % of control and 95 % of control | endpoint: mean survival time, dose: 300.0 mg/kg/injection, schedule: Q01DX001 (ip), vehicle: other 97 % of control and 100 % of control

Nc1nc(SCc2ccc([N+](=O)[O-])cc2)c2[nH]cnc2n1
inactive: [1] 94 % of control | [2] 97 % of control | [3] 101 % of control | [4] 97 % of control | [6] 95 % of control | [5] 96 % of control
